Earlier results in patent US9555118B2, “Robust controlled-release peptide formulations” (CAMURUS AB, priority 2011, dated 2017).
*1 amine or outer side, *2 acyl side, *3 side chain or, on linkers, in order; H or OH if unused. Where a SMILES comes first, the peptide text is derived from it. Side-chain parts run from the residue outwards. [ ]: non-standard residue; d: D form. The star is where a group is joined. Ethylenediamine = C(CN[*:2])N[*:1]; Hyp = O=C(O)[C@@H]1C[C@@H](O)CN1; Phg = N[C@H](C(=O)O)c1ccccc1; CO = O=C([*:1])[*:2]; Bn = c1ccc(C*)cc1

Legend:
[1] = tested on: somatostatin receptors (SSTR1-SSTR5)
[2] = single subcutaneous dose, human plasma

Molecule	Biological half-life (natural SST-14)	Somatostatin receptor affinity [1]	Terminal half-life (in vivo)	Somatostatin receptor selectivity [1]	Initial half-life following the peak [2] [h]
Ala-Gly-Cys-Lys-Asn-Phe-Phe-Trp-Lys-Thr-Phe-Thr-Ser-Cys [SST-14]	1-3 minutes	equally high affinity	–	–	–
C[C@@H](O)[C@@H]1NC(=O)[C@H](CCCCN)NC(=O)[C@@H](Cc2c[nH]c3ccccc23)NC(=O)[C@H](Cc2ccccc2)NC(=O)[C@@H](NC(=O)[C@H](N)Cc2ccccc2)CSSC[C@@H](C(=O)N[C@H](CO)[C@@H](C)O)NC1=O [Octreotide, D-Phe-Cys-Phe-D-Trp-Lys-Thr-Cys-Thr-ol (2-7 disulphide bridge)]	–	–	around 1.7 hours	high selectivity for SSTR2 and SSTR5	–
NCCCC[C@@H]1NC(=O)[C@@H](Cc2c[nH]c3ccccc23)NC(=O)[C@H](c2ccccc2)NC(=O)[C@@H]2C[C@@H](OC(=O)NCCN)CN2C(=O)[C@H](Cc2ccccc2)NC(=O)[C@H](Cc2ccc(OCc3ccccc3)cc2)NC1=O [Pasireotide] (cyclo([Hyp]([CO-Ethylenediamine])[Phg][dW]KY(Bn)F))	–	high affinity for somatostatin receptor subtypes sstr1,2,3 and sstr5	–	–	2 to 3
